{"source": "patent US6440986B2", "about": "“HIV Inhibiting pyrimidine derivatives” (Janssen Pharmaceutica, N.V., priority 1998, dated 2002)", "key": {"[1]": {"tested_on": "HIV-1", "assay": "in vitro anti-HIV assay: inhibition of the HIV-induced cytopathic effect in MT-4 cells (MTT)", "format": "cell-based", "conditions": "Human immunodeficiency virus 1, MT4, dose achieving 50% protection of HIV-infected MT-4 cells against cytopathic effect, OD 540 nm", "experimental": "(§1) A rapid, sensitive and automated assay procedure was used for the in vitro evaluation of anti-HIV agents. An HIV-1 transformed T4-cell line, MT-4, which was previously shown (Koyanagi et al., Int. J. Cancer, 36, 445-451, 1985) to be highly susceptible to and permissive for HIV infection, served as the target cell line. Inhibition of the HIV-induced cytopathic effect was used as the end point. The viability of both HIV- and mock-infected cells was assessed spectrophotometrically via the in situ reduction of 3-(4,5-dimethylthiazol-2-yl)-2,5-diphenyltetrazolium bromide (MTT). […] The percent protection achieved by the compound in HIV-infected cells was calculated by the following formula: [formula]\n(§2) whereby (ODT)HIV is the optical density measured with a given concentration of the test compound in HIV-infected cells; (ODC)HIV is the optical density measured for the control untreated HIV-infected cells: (ODC)MOCK is the optical density measured for the control untreated mock-infected cells; all optical density values were determined at 540 nm. […] The ratio of CC50 to IC50 was defined as the selectivity index (SI)."}, "[2]": {"assay": "cytotoxicity in mock-infected MT-4 cells (MTT)", "format": "cell-based", "conditions": "human, mock-infected MT-4 cells, 50% cytotoxic concentration; reduces absorbance of mock-infected MT-4 control by 50%; MTT", "experimental": "as §1, with “An HIV-1 transformed T4-cell line, MT-4, which was previously shown (Koyanagi et al., Int. J. Cancer, 36, 445-451, 1985) to be highly susceptible to and permissive for HIV infection, served as the target cell line.” left out\nas §2"}}}
{"compound": "CCCCCCCC(=O)Nc1cc(Cc2c(Cl)cccc2Cl)nc(Nc2ccc(C#N)cc2)n1", "note": "[Compound 17, N-[6-[(2,6-dichloro-phenyl)methyl]-2-[(4-cyano-phenyl)amino]-4-pyrimidinyl]octanamide]", "values": [{"measurement": "IC50", "setting": "[1]", "value": 167, "unit": "nM"}, {"measurement": "CC50", "setting": "[2]", "value": 9100, "unit": "nM"}, {"measurement": "melting point", "value": "135 to 137", "unit": "°C"}]}
{"compound": "N#Cc1ccc(Nc2nc(Cc3c(Cl)cccc3Cl)cc(NC(=O)CN3CCCCC3)n2)cc1", "note": "[Compound 25, N-[6-[(2,6-dichloro-phenyl)methyl]-2-[(4-cyano-phenyl)amino]-4-pyrimidinyl]-1-piperidine-acetamide]", "values": [{"measurement": "IC50", "setting": "[1]", "value": 79, "unit": "nM"}, {"measurement": "CC50", "setting": "[2]", "value": "> 100000", "unit": "nM"}, {"measurement": "melting point", "value": "175 to 180", "unit": "°C"}]}
{"compound": "CN(C)C=Nc1cc(Cc2c(Cl)cccc2Cl)nc(Nc2ccc(C#N)cc2)n1", "note": "[Compound 26, N′-[2-[(4-cyanophenyl)amino]-6-[(2,6-dichlorophenyl)methyl]-4-pyrimidinyl]-N,N-dimethylmethanimidamide]", "values": [{"measurement": "IC50", "setting": "[1]", "value": 11, "unit": "nM"}, {"measurement": "CC50", "setting": "[2]", "value": 33500, "unit": "nM"}, {"measurement": "melting point", "value": "175 to 180", "unit": "°C"}]}
